According to patent publication US20250051300A1, “GRAM-NEGATIVE SPECIFIC ANTIBIOTICS SPARING EFFECT ON GUT MICROBIOME” (THE BOARD OF TRUSTEES OF THE UNIVERSITY OF ILLINOIS, priority 2021, published 2025):
Values after ≈ are worked out from the molar mass of the structure shown. Like-named read-outs stand apart in the source and are kept apart here.

How the values were obtained:
Aqueous solubility limit = assay type: physicochemical; conditions: limit to which compounds were tested in MIC assays
Klebsiella pneumoniae = test: MIC, micro-dilution broth method (CLSI); assay type: cell-based; conditions: Klebsiella pneumoniae, read-out: MIC
Bacteroides fragilis = test: MIC, gut commensal bacteria, micro-dilution broth
Proteus mirabilis = test: MIC, gut commensal bacteria, micro-dilution broth
Salmonella typhimurium = test: MIC, micro-dilution broth method (CLSI); assay type: cell-based; conditions: Salmonella enterica, ATCC 14028 / TYPHIMURIUM; Salmonella typhimurium ATCC14028
Bacillus anthracis = test: microbe, parasite or virus in culture; assay type: cell-based
[1] = system: E. coli BW25113 LolC/LolE mutants; test: MIC against lolamycin-resistant LolCDE mutants; assay type: cell-based, Escherichia coli
gut microbiome = conditions: mouse, in vivo, po
E. cloacae ATCC 29893 = test: Resistance frequency, large inoculum method; assay type: cell-based, Enterobacter cloacae; conditions: wild-type E. cloacae ATCC 29893, 8×MIC
Procedure: Selection of resistant mutants. Resistant mutants were selected using the large inoculum method. Briefly, E. coli BW25113, K. pneumoniae ATCC 27736, or E. cloacae ATCC 29893 (˜1.0×10^7 c.f.u.) was plated on 100-mm plates of Luria Bertani agar containing 8, 16, 32, or 64 μg/mL, lolamycin. For E. coli ΔtolC (JW5503), ˜1.0×10^7 c.f.u. was plated on 100-mm plates of Luria Bertani agar containing 0.063, 0.13, 0.25, 0.5 μg/mL lolamycin. Colonies were visible after incubating at 37° C. for 48 h. Resistant colonies were confirmed by growing colonies in selective media with the same concentration of lolamycin.

K. pneumoniae BAA-1705 = test: Bacterial sepsis survival model; assay type: in vivo, CD-1 mice; conditions: carbapenem-resistant K. pneumoniae, 200 mg/kg IP once daily for 3 days (FIG. 7D)
[2] = system: Faecalibacterium prausnitzii; test: MIC, gut commensal bacteria, micro-dilution broth
Morganella morganii = test: MIC, gut commensal bacteria, micro-dilution broth
Lactobacillus reuteri = test: MIC, gut commensal bacteria, micro-dilution broth
E. cloacae AR0163 = test: Acute pneumonia bacterial burden model; assay type: in vivo, CD-1 mice; conditions: colistin-resistant E. cloacae, 100 mg/kg IP (FIG. 7E)
[3] = system: Bacteroides cellulosilyticus; test: MIC, gut commensal bacteria, micro-dilution broth
E. coli AR0349 = test: Acute pneumonia bacterial burden model; assay type: in vivo, CD-1 mice; conditions: lungs, 72 h post-infection
Blautia producta = test: MIC, gut commensal bacteria, micro-dilution broth
Enterococcus faecalis = test: MIC, micro-dilution broth method (CLSI); assay type: cell-based

## Cc1cc(-c2c[nH]nc2-c2cccc(OCc3cccc(C#N)c3)c2)cc(C)n1 [Compound 12, 3-((3-(4-(2,6-dimethylpyridin-4-yl)-1H-pyrazol-3-yl)phenoxy)methyl)benzonitrile]
Aqueous solubility limit; aqueous medium (not further specified)
  solubility: 0.128 mg/mL (≈ 336 µM)
Aqueous solubility limit
  solubility: 0.128 mg/mL (≈ 336 µM)
Klebsiella pneumoniae; ATCC27736, K. pneumoniae ATCC 27736
  MIC: 1 mg/L (≈ 2.63 µM)
Klebsiella pneumoniae; ATCCBAA1705, K. pneumoniae ATCC BAA-1705
  MIC: 4 mg/L (≈ 10.5 µM)
Klebsiella pneumoniae; ATCCBAA2146, K. pneumoniae ATCC BAA-2146
  MIC: 8 mg/L (≈ 21 µM)
Klebsiella pneumoniae; ATCCBAA2342, K. pneumoniae ATCC BAA-2342
  MIC: 4 mg/L (≈ 10.5 µM)
Klebsiella pneumoniae; ATCCBAA2470, K. pneumoniae ATCC BAA-2470
  MIC: 1 mg/L (≈ 2.63 µM)
Klebsiella pneumoniae; ATCCBAA2472, K. pneumoniae ATCC BAA-2472
  MIC: 4 mg/L (≈ 10.5 µM)
Klebsiella pneumoniae; ATCCBAA2473, K. pneumoniae ATCC BAA-2473
  MIC: 4 mg/L (≈ 10.5 µM)
Klebsiella pneumoniae; K. pneumoniae AR0034
  MIC: 0.5 mg/L (≈ 1.31 µM)
Klebsiella pneumoniae; K. pneumoniae AR0039
  MIC: 0.5 mg/L (≈ 1.31 µM)
Klebsiella pneumoniae; K. pneumoniae AR0041
  MIC: 0.5 mg/L (≈ 1.31 µM)
Klebsiella pneumoniae; K. pneumoniae AR0042
  MIC: 4 mg/L (≈ 10.5 µM)
Klebsiella pneumoniae; K. pneumoniae AR0043
  MIC: 0.5 mg/L (≈ 1.31 µM)
Klebsiella pneumoniae; K. pneumoniae AR0044
  MIC: 0.5 mg/L (≈ 1.31 µM)
Klebsiella pneumoniae; K. pneumoniae AR0046
  MIC: 2 mg/L (≈ 5.26 µM)
Klebsiella pneumoniae; K. pneumoniae AR0047
  MIC: 4 mg/L (≈ 10.5 µM)
Klebsiella pneumoniae; K. pneumoniae AR0049
  MIC: 8 mg/L (≈ 21 µM)
Klebsiella pneumoniae; K. pneumoniae AR0066
  MIC: 4 mg/L (≈ 10.5 µM)
Klebsiella pneumoniae; K. pneumoniae AR0068
  MIC: 4 mg/L (≈ 10.5 µM)
Klebsiella pneumoniae; K. pneumoniae AR0075
  MIC: 1 mg/L (≈ 2.63 µM)
Klebsiella pneumoniae; K. pneumoniae AR0076
  MIC: 0.5 mg/L (≈ 1.31 µM)
Klebsiella pneumoniae; K. pneumoniae AR0079
  MIC: 2 mg/L (≈ 5.26 µM)
Klebsiella pneumoniae; K. pneumoniae AR0080
  MIC: 0.5 mg/L (≈ 1.31 µM)
Klebsiella pneumoniae; K. pneumoniae AR0087
  MIC: 2 mg/L (≈ 5.26 µM)
Klebsiella pneumoniae; K. pneumoniae AR0098
  MIC: 4 mg/L (≈ 10.5 µM)
Klebsiella pneumoniae; K. pneumoniae AR0106
  MIC: 2 mg/L (≈ 5.26 µM)
Klebsiella pneumoniae; K. pneumoniae AR0107
  MIC: 0.25 mg/L (≈ 0.657 µM)
Klebsiella pneumoniae; K. pneumoniae AR0109
  MIC: 8 mg/L (≈ 21 µM)
Klebsiella pneumoniae; K. pneumoniae AR0112
  MIC: 4 mg/L (≈ 10.5 µM)
Klebsiella pneumoniae; K. pneumoniae AR0113
  MIC: 2 mg/L (≈ 5.26 µM)
Klebsiella pneumoniae; K. pneumoniae AR0115
  MIC: 8 mg/L (≈ 21 µM)
Klebsiella pneumoniae; K. pneumoniae AR0117
  MIC: 4 mg/L (≈ 10.5 µM)
Klebsiella pneumoniae; K. pneumoniae AR0120
  MIC: 2 mg/L (≈ 5.26 µM)
Klebsiella pneumoniae; K. pneumoniae AR0125
  MIC: 4 mg/L (≈ 10.5 µM)
Klebsiella pneumoniae; K. pneumoniae AR0126
  MIC: 0.5 mg/L (≈ 1.31 µM)
Klebsiella pneumoniae; K. pneumoniae AR0129
  MIC: 4 mg/L (≈ 10.5 µM)
Klebsiella pneumoniae; K. pneumoniae AR0135
  MIC: 2 mg/L (≈ 5.26 µM)
Klebsiella pneumoniae; K. pneumoniae AR0138
  MIC: 1 mg/L (≈ 2.63 µM)
Klebsiella pneumoniae; K. pneumoniae AR0139
  MIC: 2 mg/L (≈ 5.26 µM)
Klebsiella pneumoniae; K. pneumoniae AR0140
  MIC: 2 mg/L (≈ 5.26 µM)
Klebsiella pneumoniae; K. pneumoniae AR0141
  MIC: 0.5 mg/L (≈ 1.31 µM)
Klebsiella pneumoniae; K. pneumoniae AR0142
  MIC: 0.5 mg/L (≈ 1.31 µM)
Klebsiella pneumoniae; K. pneumoniae AR0143
  MIC: 4 mg/L (≈ 10.5 µM)
Klebsiella pneumoniae; K. pneumoniae AR0145
  MIC: 2 mg/L (≈ 5.26 µM)
Klebsiella pneumoniae; K. pneumoniae AR0146
  MIC: 2 mg/L (≈ 5.26 µM)
Klebsiella pneumoniae; K. pneumoniae AR0148
  MIC: 4 mg/L (≈ 10.5 µM)
Klebsiella pneumoniae; K. pneumoniae AR0152
  MIC: 0.5 mg/L (≈ 1.31 µM)
Klebsiella pneumoniae; K. pneumoniae AR0153
  MIC: 4 mg/L (≈ 10.5 µM)
Klebsiella pneumoniae; K. pneumoniae AR0158
  MIC: 8 mg/L (≈ 21 µM)
Klebsiella pneumoniae; K. pneumoniae AR0160
  MIC: 0.5 mg/L (≈ 1.31 µM)
Klebsiella pneumoniae; K. pneumoniae AR0347
  MIC: 8 mg/L (≈ 21 µM)
Klebsiella pneumoniae; K. pneumoniae AR0542
  MIC: 2 mg/L (≈ 5.26 µM)
Klebsiella pneumoniae; K. pneumoniae AR0548
  MIC: 2 mg/L (≈ 5.26 µM)
Klebsiella pneumoniae; K. pneumoniae AR0550
  MIC: 2 mg/L (≈ 5.26 µM)
Klebsiella pneumoniae; K. pneumoniae AR0552
  MIC: 4 mg/L (≈ 10.5 µM)
Klebsiella pneumoniae; K. pneumoniae AR0553
  MIC: 0.5 mg/L (≈ 1.31 µM)
Klebsiella pneumoniae; K. pneumoniae AR0554
  MIC: 4 mg/L (≈ 10.5 µM)
Klebsiella pneumoniae; K. pneumoniae AR0555
  MIC: 2 mg/L (≈ 5.26 µM)
Klebsiella pneumoniae; K. pneumoniae AR-0040
  MIC: 1 mg/L (≈ 2.63 µM)
Bacteroides fragilis; Bacteroides fragilis ATCC 25285, BHI-ych, listed as Lolamycin
  MIC: >128 mg/L
Bacteroides fragilis; Bacteroides fragilis, ATCC25285
  MIC: > 128 mg/L
Proteus mirabilis; Proteus mirabilis ATCC 35659, listed as Lolamycin
  MIC: >128 mg/L
Proteus mirabilis; Proteus mirabilis, ATCC35659
  MIC: > 128 mg/L
Salmonella typhimurium
  MIC: 1 mg/L (≈ 2.63 µM)
Bacillus anthracis
  MIC: > 128 mg/L
[1]; E. coli BW25113 mutant D264N (LolE), selected at 32-fold MIC
  MIC: >128 mg/L
[1]; E. coli BW25113 mutant E195K (LolC), selected at 32-fold MIC
  MIC: >128 mg/L
[1]; E. coli BW25113 mutant E255D (LolC), selected at 32-fold MIC
  MIC: >128 mg/L
[1]; E. coli BW25113 mutant F367S (LolE), selected at 32-fold MIC
  MIC: >128 mg/L
[1]; E. coli BW25113 mutant I206N (LolE), selected at 32-fold MIC
  MIC: >128 mg/L
[1]; E. coli BW25113 mutant M262I (LolC), selected at 32-fold MIC
  MIC: >128 mg/L
[1]; E. coli BW25113 mutant N265K (LolC), selected at 32-fold MIC
  MIC: >128 mg/L
[1]; E. coli BW25113 mutant Q258P (LolC), selected at 32-fold MIC
  MIC: >128 mg/L
[1]; Escherichia coli, BW25113
  MIC: > 128 mg/L
Gut microbiome
  effect on gut microbiome taxonomic composition: did not cause any drastic changes in taxonomic composition
E. cloacae ATCC 29893
  resistance frequency: 5.2×10^−7
K. pneumoniae BAA-1705
  efficacy, survival: showed the efficacy
[2]; Faecalibacterium prausnitzii ATCC 27768, BHI-ych, listed as Lolamycin
  MIC: >128 mg/L
[2]; Faecalibacterium prausnitzii, ATCC27768
  MIC: > 128 mg/L
Morganella morganii; ATCC25380
  MIC: > 128 mg/L
Morganella morganii; ATCC25839
  MIC: > 128 mg/L
Lactobacillus reuteri; Lactobacillus reuteri ATCC 23272, BHI-ych, listed as Lolamycin
  MIC: >128 mg/L
Lactobacillus reuteri; Limosilactobacillus reuteri, ATCC23272
  MIC: > 128 mg/L
E. cloacae AR0163
  efficacy, bacterial burden: showed the efficacy
[3]; Bacteroides cellulosilyticus
  MIC: > 128 mg/L
[3]; Bacteroides cellulosilyticus KLE 2342, BHI-ych, listed as Lolamycin
  MIC: >128 mg/L
E. coli AR0349; 100 mg/kg IP twice a day for 3 days
  reduction in bacterial burden: 2 log
E. coli AR0349; 200 mg/kg PO twice a day for 3 days
  reduction in bacterial burden vs vehicle: 3 log
Blautia producta
  MIC: > 128 mg/L
Blautia producta; Blautia producta, ATCC27340
  MIC: > 128 mg/L
Enterococcus faecalis; Enterococcus faecalis
  MIC: > 128 mg/L
Enterococcus faecalis; Enterococcus faecalis KLE 2341, BHI-ych, listed as Lolamycin
  MIC: >128 mg/L
Enterococcus faecalis; Enterococcus faecalis, ATCC19433
  MIC: > 128 mg/L
